Results: the supplement of paper PMC11061612

Key:
Test in all cases: combination Emax (second highest fraction inhibited in the dose matrix, 72 h); higher = more inhibition; extreme values may be limits of the assay
[1] = system: NCI-H1666 (Lung Adenocarcinoma)
Summary of the method: (§1)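 After 24 hours at 37°C and 5% CO2 in 1536-well plates, cells in DMEM/F12 or RPMI plus 10% FBS received two-drug dose matrices for 72 hours. Viability came from CellTiter-Glo 2.0 luminescence and was scaled as inhibition, anchored at 0 by vehicle wells and at 1 by blank wells. Combination Emax is taken as the second-highest inhibition in the matrix, and Bliss excess as the observed combination effect less EA + EB − EA·EB, with EA and EB the single-agent effects.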

[2] = system: PANC-10-05 (Pancreatic Carcinoma)
Summary of the method: as §1

LN-405 (Glioblastoma) = system: LN-405 (Glioblastoma)
Summary of the method: as §1

[3] = system: TT (Thyroid Gland Carcinoma)
Summary of the method: as §1

[4] = system: A3-KAW (B-Cell Non-Hodgkin's Lymphoma)
Summary of the method: as §1

PA-1 (Ovarian Carcinoma) = system: PA-1 (Ovarian Carcinoma)
Summary of the method: as §1

SMILES | combination Emax [1] | combination Emax [2] | combination Emax (LN-405 (Glioblastoma)) | combination Emax [3] | combination Emax [4] | combination Emax (PA-1 (Ovarian Carcinoma))
COc1nnc2ccc(N3CCC(c4ccc(OCCN5CCN(C)C(=O)[C@H]5C)cc4)CC3)nn12 [AZD5153] + CCN(CCO)CCCOc1ccc2c(Nc3cc(CC(=O)Nc4cccc(F)c4)[nH]n3)ncnc2c1 [AZD2811] (first compound max 1 µM, 7x7, partner max 1 µM) | 0.432 | 0.554 | 0.515 | 0.692 | 1 | 0.904
COc1nnc2ccc(N3CCC(c4ccc(OCCN5CCN(C)C(=O)[C@H]5C)cc4)CC3)nn12 [AZD5153] + C[C@@H]1COCCN1C2=NC(=NC(=C2)C3(CC3)[S@](=N)(=O)C)C4=C5C=CNC5=NC=C4 [AZD6738] (first compound max 1 µM, 7x7, partner max 10 µM) | 0.493 | 0.682 | 0.53 | 0.629 | 1 | 0.973
COc1nnc2ccc(N3CCC(c4ccc(OCCN5CCN(C)C(=O)[C@H]5C)cc4)CC3)nn12 [AZD5153] + Cc1c2c(nn1C)CSCc1cc(n(C)n1)CSc1cc(c3ccccc3c1)OCCCc1c(C(=O)O)n(C)c3c-2c(Cl)ccc13 [AZD5991] (first compound max 1 µM, 7x7, partner max 1 µM) | 0.423 | 0.515 | 0.574 | 0.623 | 1 | 1
COc1nnc2ccc(N3CCC(c4ccc(OCCN5CCN(C)C(=O)[C@H]5C)cc4)CC3)nn12 [AZD5153] + Cn1cnc2c(F)c(Nc3ccc(Br)cc3Cl)c(C(=O)NOCCO)cc21 [Selumetinib] (first compound max 1 µM, 7x7, partner max 10 µM) | 0.558 | 0.633 | 0.332 | 0.524 | 1 | 0.91
Cc1c2c(nn1C)CSCc1cc(n(C)n1)CSc1cc(c3ccccc3c1)OCCCc1c(C(=O)O)n(C)c3c-2c(Cl)ccc13 [AZD5991] + C1CN(CCC1(C(=O)N[C@@H](CCO)C2=CC=C(C=C2)Cl)N)C3=NC=NC4=C3C=CN4 [Capivasertib] (first compound max 1 µM, 7x7, partner max 3 µM) | 0.274 | 0.357 | 0.404 | 0.366 | 1 | 0.947
Cc1c2c(nn1C)CSCc1cc(n(C)n1)CSc1cc(c3ccccc3c1)OCCCc1c(C(=O)O)n(C)c3c-2c(Cl)ccc13 [AZD5991] + C=CCn1c(=O)c2cnc(Nc3ccc(N4CCN(C)CC4)cc3)nc2n1-c1cccc(C(C)(C)O)n1 [AZD1775] (first compound max 1 µM, partner max 1 µM) | 0.338 | 0.573 | 0.55 | 0.428 | 1 | 0.937
Cc1c2c(nn1C)CSCc1cc(n(C)n1)CSc1cc(c3ccccc3c1)OCCCc1c(C(=O)O)n(C)c3c-2c(Cl)ccc13 [AZD5991] + CC1(C)CCC(CN2CCN(c3ccc(C(=O)NS(=O)(=O)c4ccc(NCC5CCOCC5)c([N+](=O)[O-])c4)c(Oc4cnc5[nH]ccc5c4)c3)CC2)=C(c2ccc(Cl)cc2)C1 [Venetoclax] (first compound max 1 µM, 7x7, partner max 1 µM) | 0.242 | 0.188 | 0.425 | 0.83 | 1 | 0.964
Cc1c2c(nn1C)CSCc1cc(n(C)n1)CSc1cc(c3ccccc3c1)OCCCc1c(C(=O)O)n(C)c3c-2c(Cl)ccc13 [AZD5991] + CCN(CCO)CCCOc1ccc2c(Nc3cc(CC(=O)Nc4cccc(F)c4)[nH]n3)ncnc2c1 [AZD2811] (first compound max 1 µM, 7x7, partner max 1 µM) | 0.334 | 0.303 | 0.437 | 0.574 | 1 | 0.932
Cc1c2c(nn1C)CSCc1cc(n(C)n1)CSc1cc(c3ccccc3c1)OCCCc1c(C(=O)O)n(C)c3c-2c(Cl)ccc13 [AZD5991] + CN(C)CCCOc1ccc(-c2ccc3ncc4c(c3c2)n(C2CCOCC2)c(=O)n4C)cn1 [AZD0156] (first compound max 1 µM, 7x7, partner max 1 µM) | 0.238 | 0.334 | 0.376 | 0.297 | 1 | 0.855
Cc1c2c(nn1C)CSCc1cc(n(C)n1)CSc1cc(c3ccccc3c1)OCCCc1c(C(=O)O)n(C)c3c-2c(Cl)ccc13 [AZD5991] + C[C@@H]1COCCN1C2=NC(=NC(=C2)C3(CC3)[S@](=N)(=O)C)C4=C5C=CNC5=NC=C4 [AZD6738] (first compound max 1 µM, 7x7, partner max 10 µM) | 0.322 | 0.488 | 0.668 | 0.56 | 1 | 0.967
Cc1c2c(nn1C)CSCc1cc(n(C)n1)CSc1cc(c3ccccc3c1)OCCCc1c(C(=O)O)n(C)c3c-2c(Cl)ccc13 [AZD5991] + C[C@@H](Nc1cc(F)cc(F)c1)c1cc(C(=O)N(C)C)cc2c(=O)cc(N3CCOCC3)oc12 [AZD8186] (first compound max 1 µM, 7x7, partner max 3 µM) | 0.386 | 0.311 | 0.572 | 0.394 | 1 | 0.964
Cc1c2c(nn1C)CSCc1cc(n(C)n1)CSc1cc(c3ccccc3c1)OCCCc1c(C(=O)O)n(C)c3c-2c(Cl)ccc13 [AZD5991] + Cc1cc2ncnn2cc1Nc1ncc2c(n1)n(C1CCOCC1)c(=O)n2C [AZD7648] (first compound max 1 µM, 7x7, partner max 10 µM) | 0.246 | 0.404 | 0.37 | 0.38 | 1 | 0.906
Cc1c2c(nn1C)CSCc1cc(n(C)n1)CSc1cc(c3ccccc3c1)OCCCc1c(C(=O)O)n(C)c3c-2c(Cl)ccc13 [AZD5991] + Cn1cnc2c(F)c(Nc3ccc(Br)cc3Cl)c(C(=O)NOCCO)cc21 [Selumetinib] (first compound max 1 µM, 7x7, partner max 3 µM) | 0.736 | 0.442 | 0.383 | 0.339 | 1 | 0.865
C[C@@H]1COCCN1c1cc(C2([S@](C)(=N)=O)CC2)nc(-c2ccnc3[nH]ccc23)n1 [AZD6738] + O=C(c1cc(Cc2n[nH]c(=O)c3ccccc23)ccc1F)N1CCN(C(=O)C2CC2)CC1 [Olaparib] (first compound max 10 µM, 7x7, partner max 10 µM) | 0.331 | 0.486 | 0.391 | 0.419 | 0.984 | 0.768
Cc1cc2ncnn2cc1Nc1ncc2c(n1)n(C1CCOCC1)c(=O)n2C [AZD7648] + C=CCn1c(=O)c2cnc(Nc3ccc(N4CCN(C)CC4)cc3)nc2n1-c1cccc(C(C)(C)O)n1 [AZD1775] (first compound max 10 µM, partner max 1 µM) | 0.357 | 0.49 | 0.281 | 0.475 | 0.896 | 0.706
Cc1cc2ncnn2cc1Nc1ncc2c(n1)n(C1CCOCC1)c(=O)n2C [AZD7648] + CCN(CCO)CCCOc1ccc2c(Nc3cc(CC(=O)Nc4cccc(F)c4)[nH]n3)ncnc2c1 [AZD2811] (first compound max 10 µM, 7x7, partner max 1 µM) | 0.381 | 0.43 | 0.186 | 0.611 | 0.608 | 0.315
Cc1cc2ncnn2cc1Nc1ncc2c(n1)n(C1CCOCC1)c(=O)n2C [AZD7648] + CN(C)CCCOc1ccc(-c2ccc3ncc4c(c3c2)n(C2CCOCC2)c(=O)n4C)cn1 [AZD0156] (first compound max 10 µM, 7x7, partner max 1 µM) | 0.431 | 0.483 | 0.164 | 0.41 | 0.597 | 0.239
Cc1cc2ncnn2cc1Nc1ncc2c(n1)n(C1CCOCC1)c(=O)n2C [AZD7648] + C[C@@H]1COCCN1C2=NC(=NC(=C2)C3(CC3)[S@](=N)(=O)C)C4=C5C=CNC5=NC=C4 [AZD6738] (first compound max 10 µM, 7x7, partner max 10 µM) | 0.354 | 0.49 | 0.43 | 0.604 | 0.969 | 0.75
Cc1cc2ncnn2cc1Nc1ncc2c(n1)n(C1CCOCC1)c(=O)n2C [AZD7648] + O=C(c1cc(Cc2n[nH]c(=O)c3ccccc23)ccc1F)N1CCN(C(=O)C2CC2)CC1 [Olaparib] (first compound max 10 µM, 7x7, partner max 10 µM) | 0.0994 | 0.299 | 0.183 | 0.161 | 0.656 | 0.374
NC1(C(=O)N[C@@H](CCO)c2ccc(Cl)cc2)CCN(c2ncnc3[nH]ccc23)CC1 [Capivasertib] + CC(=O)c1c(C)c2cnc(Nc3ccc(N4CCNCC4)cn3)nc2n(C2CCCC2)c1=O [Palbociclib] (first compound max 10 µM, 7x7, partner max 10 µM) | 0.382 | 0.49 | 0.577 | 0.447 | 0.846 | 0.909
NC1(C(=O)N[C@@H](CCO)c2ccc(Cl)cc2)CCN(c2ncnc3[nH]ccc23)CC1 [Capivasertib] + CC(C)n1c(=O)n(C)c2cnc3cc(F)c(-c4ccc(OCCCN5CCCCC5)nc4)cc3c21 [AZD1390] (first compound max 10 µM, 7x7, partner max 0.3 µM) | 0.31 | 0.416 | 0.489 | 0.425 | 0.49 | 0.753
NC1(C(=O)N[C@@H](CCO)c2ccc(Cl)cc2)CCN(c2ncnc3[nH]ccc23)CC1 [Capivasertib] + CCN(CCO)CCCOc1ccc2c(Nc3cc(CC(=O)Nc4cccc(F)c4)[nH]n3)ncnc2c1 [AZD2811] (first compound max 10 µM, 7x7, partner max 1 µM) | 0.388 | 0.42 | 0.497 | 0.544 | 0.674 | 0.918
NC1(C(=O)N[C@@H](CCO)c2ccc(Cl)cc2)CCN(c2ncnc3[nH]ccc23)CC1 [Capivasertib] + COc1nnc2ccc(N3CCC(c4ccc(OCCN5CCN(C)C(=O)[C@H]5C)cc4)CC3)nn12 [AZD5153] (first compound max 10 µM, 7x7, partner max 1 µM) | 0.385 | 0.669 | 0.623 | 0.695 | 1 | 0.998
NC1(C(=O)N[C@@H](CCO)c2ccc(Cl)cc2)CCN(c2ncnc3[nH]ccc23)CC1 [Capivasertib] + C[C@@H]1COCCN1C2=NC(=NC(=C2)C3(CC3)[S@](=N)(=O)C)C4=C5C=CNC5=NC=C4 [AZD6738] (first compound max 10 µM, 7x7, partner max 10 µM) | 0.44 | 0.519 | 0.615 | 0.484 | 0.992 | 0.964
